The results in this text go back to patent publication US8980933B2, “Combretastatin analogs for use in the treatment of cancer” (Universitat Bayreuth, priority 2010, dated 2015).

Broadly, the IC50 is the concentration that gives 50% inhibition.

≈ marks a conversion by molar mass, not a printed value.

One series deals with NHDF fibroblasts. In words: Cytotoxicity, NHDF. It counts as cell-based. To be noted: Homo sapiens; NHDF fibroblasts (non-malign). As to the method:
(§1) The compounds 9a, 9b and 9c, which are exemplary compounds of formula (III) according to the present invention, as well as the reference compound 25f were tested in a similar manner.

The subject of a further series is KB-3-1 cervix carcinoma. As to the kind of experiment: Cytotoxicity, KB-3-1. To be noted: Homo sapiens. It counts as cell-based. Here is the method: as §1
The next series relates to HUVEC cells. In words: Minimal inhibitory concentration in HUVEC. It counts as cell-based. Here is the method:
as §1

For another series, the system named is L929 fibroblasts. As to the kind of experiment: Cytotoxicity, L929. It counts as cell-based. To be noted: Mus musculus, read-out: IC50 L-929. As to the method:
as §1

The test system of series [1] is PtK-2 opossum kidney cells. As to the kind of experiment: Cytotoxicity, PtK-2. The format is cell-based. Conditions: PtK2; PtK-2 opossum kidney cells (non-malign). As to the method: as §1
The nature of series [2]: Toxicity / tolerability in mice. The format is in vivo. As to the method: Prior to testing compound 5b, healthy animals of this type were treated with an ascending range of doses of 5b in order to establish a toxicity profile. […] Suitable dosages were then administered in further tests in a nude mouse xenograft model of a pair of germ cell tumor cell lines, the chemoresistant cell line 1411HP and the chemosensitive cell line H12.1. These cell lines retain their individual in vitro chemosensitivities to cisplatin when grown as xenograft tumors and so may serve as a model of the clinical situation of resistance to chemotherapy (Mueller et al. Cancer Res. 2003; Mueller et al. Tumor Biol. 2006).
Compounds 5b, 6b and 6f were also tested in terms of feasibility of oral administration. Mice received a single dose of 40 mg/kg body weight of 5b, 6b or 6f, respectively. […] Then compounds 6b or 6f were given peroral as dual-dose application on two consecutive days in accordance to the i.p. treatment scheme used for the regression trials but with a 2-fold higher dose of 2×40 mg/kg body weight.

In series [3] the test system is H12.1 germ cell tumor, 1411HP germ cell tumor, A2780 ovarian carcinoma, HT29 colon carcinoma, DLD1 colon carcinoma, HCT8 colon carcinoma. As to the kind of experiment: SRB-cytotoxicity assay in a panel of tumor cell lines. It counts as cell-based, human. To be noted: H12.1, 1411HP. As to the method:
The cytotoxic activity of 5b was established by standard colorimetric tests (SRB- and MTT-assays) against various tumor cell lines of different entities. For the SRB cytotoxicity assay, dose-response curves of the testicular germ cell tumor cell lines exposed to drug concentrations of 0.001-10 μM were established using the sulforhodamine-B (SRB) microcuiture colorimetric assay (Papazisis et al. Optimization of the sulforhodamine B colorimetric assay. J. Immunol. Methods 1997, 208, 151-158) and performed as described in: Müller et al. Failure of activation of caspase-9 induces a higher threshold for apoptosis and cisplatin resistance in testicular cancer. Cancer Res. 2003, 63, 513-521. Briefly, cells were seeded into 96-well plates on day 0, at cell densities previously determined to ensure exponential cell growth during the period of the experiment. On day 1, cells were treated with the drugs dissolved in medium to give the appropriate concentrations for indicated times and the percentage of surviving cells relative to untreated controls was determined on day 5.
The compounds 5b, 6b, 5f and 6f as well as the reference compound 25f (Wang et al.) were furthermore subjected to an SRB-cytotoxicity assay in a panel of tumor cell lines (H12.1 germ cell tumor, 1411HP germ cell tumor, A2780 ovarian carcinoma, HT29 colon carcinoma, DLD1 colon carcinoma, HCT8 colon carcinoma).

In series [4] the test system is A2780 ovarian carcinoma xenografts. In words: A2780 ovarian carcinoma xenograft model. It counts as in vivo, mouse.
Series [5] has as its system 1411HP germ cell tumor xenografts. In words: Nude mouse xenograft model of resistant 1411HP. It counts as in vivo. Conditions: 1411HP xenograft model. Here is the method:
In vivo antitumor activity and tolerability of compounds 5b and 6b of the invention were studied in a nude mouse xenograft model of the resistant germ cell tumor cell line 1411HP employing Athymic Nude-Fox n1 nu/nu mice (Harlan und Winkelmann, Borchen, Germany).
The tests were carried out as follows. The mice were kept under pathogen-free conditions, fed on an autoclaved standard diet and given free access to sterilized water. Each of five mice were administered a 150 μL phosphate buffered saline suspension of 10 million 1411HP cells into the left flank to generate subcutaneous xenograft tumors. After 4 weeks one group of two mice bearing 1411HP xenografts with a volume of ca. 1 cm^3 were injected i.p. with a single dose of 30 mg/kg body weight of 5b or 6b, respectively. Two mice in the second group with xenografts of a volume of ca. 2.5 cm^3 were injected i.p. with 20 mg/kg body weight of 5b on two consecutive days. Tumor volumes were calculated by caliper measurement using the formula a^2×b×0.5 with a being the short and b the long dimension. Body weight was assessed twice weekly and daily while under therapy.

As to `COc1ccc(-c2ncn(C)c2-c2cc(Br)c(OC)c(OC)c2)cc1F` [9a, 1-Methyl-5-(3-bromo-4,5-dimethoxyphenyl)-4-(3-fluoro-4-methoxyphenyl)imidazole], the IC50 was 0.175 µM with NHDF fibroblasts, 0.0044 µM in the series on KB-3-1 cervix carcinoma, 0.024 µM in the series with L929 fibroblasts and 0.437 µM in [1]. Also, in the series on HUVEC cells, the “minimal inhibitory concentration (MIC) HUVEC” value amounted to 0.109 µM (≈ 0.0459 µg/mL).
For the molecule `CCOc1ccc(-c2c(-c3cc(Br)c(OC)c(OC)c3)ncn2C)cc1N` [compound 6f, 1-methyl-5-(3-amino-4-ethoxyphenyl)-4-(3-bromo-4,5-dimethoxyphenyl)-imidazole], the “toxicity after oral administration” value in series [2] (peroral dual-dose 2×40 mg/kg on two consecutive days) is recorded as “no signs of toxicity were observed”; in series [2] (single dose 40 mg/kg oral) it was “No signs of toxicity were observed”; in series [2] (single dose 60 mg/kg peroral), “tolerated symptom-free”. For the same molecule, in series [3], the “in vitro cytotoxicity compared to 25f” value is “further improvement of cytotoxicity”. The vascular disrupting effect entry in [4] and in series [5] was “vascular disrupting activity” in each case.
Regarding `CCOc1ccc(-c2c(-c3cc(Cl)c(OC)c(OC)c3)ncn2C)cc1N` [compound 5f, 1-methyl-5-(3-amino-4-ethoxyphenyl)-4-(3-chloro-4,5-dimethoxyphenyl)-imidazole], the “in vitro cytotoxicity compared to 25f” value in series [3] is “further improvement of cytotoxicity”. Further, the vascular disrupting effect result in series [4] and in series [5] was “vascular disrupting activity” in each case.
